Source: ChEMBL document CHEMBL1152302, “Dihydropyrrole[2,3-d]pyridine derivatives as novel corticotropin-releasing factor-1 antagonists: mapping of the receptor binding pocket by in silico docking studies” (J Med Chem, 2008)

Biological target: T1, Corticotropin-releasing factor receptor 1 (Homo sapiens, UniProt P34998)
T1 sequence (P34998 whole entry): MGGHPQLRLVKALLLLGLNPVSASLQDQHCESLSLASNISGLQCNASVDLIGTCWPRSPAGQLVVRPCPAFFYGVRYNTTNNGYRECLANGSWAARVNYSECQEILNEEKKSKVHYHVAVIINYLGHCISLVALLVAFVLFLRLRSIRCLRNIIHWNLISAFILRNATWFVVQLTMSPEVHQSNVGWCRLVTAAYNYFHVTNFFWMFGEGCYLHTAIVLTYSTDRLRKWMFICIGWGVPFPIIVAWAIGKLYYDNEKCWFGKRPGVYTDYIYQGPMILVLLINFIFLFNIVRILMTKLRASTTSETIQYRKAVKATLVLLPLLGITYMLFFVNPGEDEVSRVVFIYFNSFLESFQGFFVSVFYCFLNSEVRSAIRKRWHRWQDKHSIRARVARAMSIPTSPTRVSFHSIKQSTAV
Assay: Displacement of [125I]sauvagine from human recombinant CRF1 receptor expressed in CHO cells by SPA
Type: cell-based

Going from `Cc1cc(-n2ccc(-c3nccs3)n2)c2c(n1)N(c1ccc(C#N)cc1-c1cccs1)CC2` to `Cc1cc(-n2ccc(-c3nccs3)n2)c2c(n1)N(c1ccc(C#N)cc1Cl)CC2`, the IC50 falls from 851 nM to 229 nM (3.7-fold). The second is the more potent here.

First: CCc1cc(C#N)ccc1N1CCc2c(-n3ccc(-c4nccs4)n3)cc(C)nc21
Second: Cc1cc(-n2ccc(-c3nccs3)n2)c2c(n1)N(c1ccc(C#N)cc1F)CC2
The IC50 of the first is 16-fold lower: 126 nM for the first, 2040 nM for the second. The first is the more potent here.

First: Cc1cc(-n2ccc(-c3nccs3)n2)c2c(n1)N(c1ccc(O)cc1C)CC2
Second: Cc1cc(-n2ccc(-c3nccs3)n2)c2c(n1)N(c1ccc(F)cc1C)CC2
The IC50 of the first is 21-fold higher: 3470 nM for the first, 162 nM for the second.

First: COc1ccc(-n2ccc3c(-n4ccc(-c5nccs5)n4)cc(C)nc32)c(C)c1
Second: COc1ccc(N2CCc3c(-n4ccc(-c5nccs5)n4)cc(C)nc32)c(C)c1
The IC50 of the first is 8-fold higher: 427 nM for the first, 53.7 nM for the second. The second is the more potent here.

`COc1ccc(N2CCc3c(-n4ccc(-c5nccs5)n4)cc(C)nc32)c([N+](=O)[O-])c1` and `Cc1cc(-n2ccc(-c3nccs3)n2)c2c(n1)N(c1ccc(F)cc1[N+](=O)[O-])CC2` cannot be ordered by IC50: greater than 10000 nM for the first, greater than 10000 nM for the second.

Compared with `Cc1cc(-n2ccc(-c3ccccn3)n2)c2c(n1)N(c1ccc(C#N)cc1C(F)(F)F)CC2`, `Cc1cc(-n2ccc(-c3ccccn3)n2)c2c(n1)N(c1ccc(C#N)cc1C)CC2` is 2.4-fold higher in IC50: 93.3 nM for the first, 224 nM for the second.

Compared with `COc1ccc(N2CCc3c(-n4ccc(-c5nccs5)n4)cc(C)nc32)c(C(F)F)c1`, `COc1ccc(N2CCc3c(-n4ccc(-c5nccs5)n4)cc(C)nc32)c(Cl)c1` is 1.6-fold higher in IC50: 34.7 nM for the first, 56.2 nM for the second. The first is the more potent here.

Compared with `Cc1cc(-n2ccc(-c3nccs3)n2)c2cnn(-c3ccc(C#N)cc3C)c2n1`, `Cc1cc(-n2ccc(-c3nccs3)n2)c2c(n1)N(c1ccc(C#N)cc1C#N)CC2` is 2.7-fold higher in IC50: 2750 nM for the first, 7410 nM for the second.

First: Cc1cc(-n2ccc(-c3nccs3)n2)c2c(n1)N(c1ccc(C(F)(F)F)cc1C(F)(F)F)S(=O)(=O)C2
Second: Cc1cc(-n2ccc(-c3nccs3)n2)c2c(n1)N(c1ccc(C(F)(F)F)cc1C(F)(F)F)CC2
The IC50 of the first is higher: greater than 10000 nM for the first, 27.5 nM for the second.

First: Cc1cc(-n2ccc(-c3nccs3)n2)c2[nH]c(=O)n(-c3ccc(C(F)(F)F)cc3C(F)(F)F)c2n1
Second: Cc1cc(-n2ccc(-c3nccs3)n2)c2nc(C)n(-c3ccc(C(F)(F)F)cc3C(F)(F)F)c2n1
The IC50 of the first is lower: 8320 nM for the first, greater than 10000 nM for the second. The first is the more potent here.

Going from `Cc1cc(-n2ccc(-n3cccn3)n2)c2c(n1)N(c1ccc(C#N)cc1Cl)CC2` to `Cc1cc(-n2ccc(-n3cccn3)n2)c2c(n1)N(c1ccc(C#N)cc1C)CC2`, the IC50 rises from 115 nM to 316 nM (2.7-fold).

Going from `Cc1cc(-n2ccc(-c3nccs3)n2)c2nc(C(F)(F)F)n(-c3ccc(C(F)(F)F)cc3C(F)(F)F)c2n1` to `Cc1cc(-n2ccc(-c3nccs3)n2)c2c(n1)N(c1ccc([N+](=O)[O-])cc1C(F)(F)F)CC2`, the IC50 falls from greater than 10000 nM to 58.9 nM.

Going from `COc1ccc2c(c1)CCN2c1cc(-n2ccc(-c3nccs3)n2)cc(C)n1` to `COc1ccc(N2CCc3c(-n4ccc(-c5nccs5)n4)cc(C)nc32)cc1`, the IC50 falls from greater than 10000 nM to 8710 nM. The second is the more potent here.

`COc1ccc(N2CCc3c(-n4ccc(-c5nccs5)n4)cc(C)nc32)c(OC)c1` and `COc1ccc(N2CCc3c(-n4ccc(-c5nccs5)n4)cc(C)nc32)c(OC)n1` are within 1.5-fold of each other in IC50: 174 nM for the first, 214 nM for the second.

Going from `Cc1cc(-n2ccc(-c3nccs3)n2)c2c(n1)N(c1ccc(S(C)(=O)=O)cc1Cl)CC2` to `Cc1cc(-n2ccc(-c3nccs3)n2)c2c(n1)N(c1ccc(S(C)(=O)=O)cc1S(C)(=O)=O)CC2`, the IC50 rises from 2340 nM to 3890 nM (1.7-fold).

Going from `COc1ccc(N2CCc3c(-n4ccc(-c5nccs5)n4)cc(C)nc32)c(C)n1` to `Cc1cc(-n2ccc(-c3nccs3)n2)c2c(n1)N(c1cnc(N(C)C)cc1C)CC2`, the IC50 rises from 60.3 nM to 257 nM (4.3-fold). The first is the more potent here.

Compared with `Cc1cc(-n2ccc(-n3cccn3)n2)c2c(n1)N(c1ccc(C#N)cc1C(F)(F)F)CC2`, `Cc1cc(-n2ccc(-c3ccccn3)n2)c2c(n1)N(c1ccc(C#N)cc1Cl)CC2` is 2.5-fold higher in IC50: 145 nM for the first, 363 nM for the second.

Compound `Cc1cc(-n2ccc(-c3nccs3)n2)c2c(n1)N(c1ccc(Cl)cc1[N+](=O)[O-])CC2` has an IC50 greater than 10000 nM.
